Measured values: a melting point compilation (Tetko et al.)

Compound O=[N+]([O-])OC1COC2C(O)COC12 (configuration not stated) has a melting point of 88 to 93 °C.

With N#CC(C(=O)N1CCOCC1)=C(SCc1ccccc1)SCc1ccccc1 the melting point was 123 °C.

Compound CC(=O)Nc1ccccc1N has a melting point of 135 °C.

With OCc1ccccc1S the melting point was 32 °C.

For O=[N+]([O-])C=Cc1ccccc1C(F)(F)F, the melting point was 60 to 62 °C.

In the case of COC(=O)c1c(OC)ccc(OC)c1C(=O)OC, the melting point is reported as 101 °C.

In the case of CCOc1ccc(-c2nnc3n2NCS3)cc1, the melting point is reported as 118 to 120 °C.

Work on Cc1cc(C)c(N)c(Br)c1 yielded a melting point of 44 °C.

Compound Cc1c(C)c(O)c(C)c(C)c1O has a melting point of 233 °C.

With COc1ccc(CC(=O)O)cc1C the melting point was 93 to 95 °C.

For OCCCCCCC(F)(F)C(F)(F)C(F)(F)C(F)(F)C(F)(F)C(F)(F)C(F)(F)C(F)(F)F, the melting point was 56 °C.

For Cc1ncc(S(=O)(=O)C(C)(C)C)c(N)n1, the melting point was 163 to 166 °C.

Compound COc1c(Cl)c(Cl)c(O)c(Cl)c1Cl has a melting point of 116 °C.

Compound NC(=S)Nc1cccc([N+](=O)[O-])c1 has a melting point of 189 to 190 °C.

Work on COc1ccc(-c2ccc(S(=O)(=O)NCCC(=O)O)cc2)cc1 yielded a melting point of 190 °C.

Compound COc1cc(C(C)=O)ccc1F has a melting point of 52 to 54 °C.

In the case of Cc1ccc(N=C=O)cc1[N+](=O)[O-], the melting point is reported as 51 °C.

For O=C(C=Cc1ccccc1)c1ccc(F)cc1, the melting point was 79 to 80 °C.

ClCc1cc(-c2ccco2)on1 gave a melting point of 47 to 49 °C.

Compound C=C(C)C(=O)C(=CC(=O)O)OC has a melting point of 83 °C.

Compound Cc1cc(C)c2cc(C)ccc2c1 has a melting point of 12 °C.

With COC(=O)C1Cc2c3c(c4c(c2CC1C(=O)OC)CC(C(=O)OC)C(C(=O)OC)C4)CC(C(=O)OC)C(C(=O)OC)C3 (configuration not stated) the melting point was 261 to 263 °C.

Work on O=Cc1c2ccccc2cc2ccccc12 yielded a melting point of 105 °C.

Work on COC(=O)/C(=C/c1ccccc1)Cc1ccccc1 yielded a melting point of 27 to 28 °C.

In the case of Cc1cc(C(F)(F)F)n2nc(-c3ccccc3)cc2n1, the melting point is reported as 174 °C.

Compound O=C(O)c1ccc2c(c1)C(=O)c1cc(C(=O)O)ccc1-2 has a melting point of 407 °C.

In the case of O=Cc1ccc(C=CC(=O)O)cc1, the melting point is reported as 250 to 255 °C.

For Clc1cc2oc3c(Cl)c(Cl)ccc3c2cc1Cl, the melting point was 195 °C.

In the case of Nc1ncnc2c1ncn2C1OC(CO)CC1O (configuration not stated), the melting point is reported as 226 °C.

Work on COC(=O)c1sccc1-c1ccc(C=O)o1 yielded a melting point of 117 to 118 °C.

In the case of C/C(=N\c1ccc(O)c(C)c1)c1c(O)c2ccccc2n(-c2ccccc2)c1=O, the melting point is reported as 231 to 232 °C.

Compound O=C(O)c1cc(O)cc(O)c1 has a melting point of 235 to 240 °C.

For O=S(=O)(Cl)c1csc(C(F)(F)F)c1-c1ccccc1, the melting point was 86 to 87 °C.

O=C1C(C(Br)C2(Br)C(=O)N(c3ccccc3)N=C2c2ccc([N+](=O)[O-])cc2)C(c2ccc([N+](=O)[O-])cc2)=NN1c1ccccc1 (configuration not stated) gave a melting point of 308 to 310 °C.

For Clc1cc(Cl)c2c(c1)oc1cc(Cl)cc(Cl)c12, the melting point was 207 °C.

With O=C1NC(=O)C(=NNc2cccc([N+](=O)[O-])c2)C(=O)N1 the melting point was 270 °C.

In the case of COc1ccc(C=O)cc1Br, the melting point is reported as 51 °C.

In the case of N#CCc1nc(-c2ccccc2)cs1, the melting point is reported as 59 to 60 °C.

With O=C(c1ccc(F)cc1)C1CC1 the melting point was -15 °C.

C=COC(C)(C)C showed a melting point of -112 °C.

Compound O=c1[nH][nH]c(=O)[nH]1 has a melting point of 250 °C.

With CC(=O)Oc1ccc2c(C)cc(=O)oc2c1 the melting point was 152 to 156 °C.

Work on O=C(O)C=CC(=O)c1ccccc1 yielded a melting point of 91 to 96 °C.

In the case of O=S(=O)(Cl)Cc1ccc(F)cc1, the melting point is reported as 61 to 63 °C.

With OCCN(CCO)c1nc(N2CCCCC2)c2nc(N(CCO)CCO)nc(N3CCCCC3)c2n1 the melting point was 163 °C.

Compound CCCCCCCCCCCCCCCC(=O)NCCO has a melting point of 98.5 °C.

Compound Oc1ccc2c(c1)OCO2 has a melting point of 63 to 65 °C.

Cc1oc(-c2ccccc2)nc1C(=O)Cl showed a melting point of 135 to 136 °C.

COc1ccc(CCO)cc1 showed a melting point of 28 to 30 °C.

Compound CCCCCCCCCCCCN1CC(C(=O)O)CC1=O (configuration not stated) has a melting point of 39 °C.

Compound CC(=O)c1cc2c(cc1C)C(C)(C)C(C)CC2(C)C (configuration not stated) has a melting point of 54.5 °C.

OC1CCC(O)CC1 (configuration not stated) gave a melting point of 143 °C.

In the case of CS(=O)(=O)c1ccc(S(=O)(=O)Cl)cc1, the melting point is reported as 160 °C.

In the case of COc1cccc(C=C2C(=O)NN=C2c2c(O)c3ccccc3n(C)c2=O)c1, the melting point is reported as 254 °C.

CC1=Nc2ccccc2Sc2c1c(=O)n(-c1ccccc1)c1ccccc21 gave a melting point of 231 °C.

CC(=O)/C(=N\Nc1cccc(C(F)(F)F)c1)C(=O)C(F)(F)F gave a melting point of 85 to 87 °C.

CC(C)(O)Cc1ccccc1 showed a melting point of 24 °C.

Compound COc1cc(C)c(C=O)cc1C has a melting point of 31 to 35 °C.

CCCCC(=O)c1ccc(O)cc1 showed a melting point of 62 to 65 °C.

CCOC(=O)c1ccc(-c2ccccc2)cc1 showed a melting point of 49 °C.

CC(=O)c1csc2ccccc12 gave a melting point of 64 °C.

In the case of CCOC(=O)c1c2n(n(-c3ccc([N+](=O)[O-])cc3)c1=N)C(=O)CS2, the melting point is reported as 145 to 148 °C.

With CC12CCC(C1(C)C)C(C/C=C\c1ccccc1)(C1(C/C=C/c3ccccc3)C(=O)C3(C)CCC1C3(C)C)C2=O (configuration not stated) the melting point was 188 °C.

With Cc1cc(Cl)cc(Cl)c1N=C=S the melting point was 57 to 58 °C.

In the case of CCOC(=O)C(SP(=S)(OC)OC)c1ccccc1 (configuration not stated), the melting point is reported as 17.5 °C.

For COC(=O)c1cscc1OC, the melting point was 70 to 71 °C.

Cc1ccc(-c2cc(NN=c3c(C)nc4ccccc4[nH]c3=O)[nH]n2)cc1 gave a melting point of 168 °C.

Compound CC1CCC(C)(C(=O)CCOC(=S)Nc2ccccc2)C1(C)C (configuration not stated) has a melting point of 154 °C.

In the case of COC(=O)c1coc(CCl)n1, the melting point is reported as 74 to 76 °C.

For Cc1ncsc1C, the melting point was 83.5 °C.

In the case of CC#Cc1cc(C)nc(Nc2ccccc2)n1, the melting point is reported as 133 °C.

For O=C(O)c1cc(C(F)(F)F)ccc1N1CCOCC1, the melting point was 175 to 177 °C.

Compound CC(C)CC1Nc2cc(Cl)c(S(N)(=O)=O)cc2S(=O)(=O)N1 (configuration not stated) has a melting point of 222 °C.

In the case of Cc1cc2ccccc2n1C, the melting point is reported as 56.5 °C.

Work on Nc1cc(Cl)ccc1S yielded a melting point of 98 °C.

For CNC(=O)Oc1cccc(C)c1, the melting point was 77.7 °C.

In the case of C=C(C)C(C)=O, the melting point is reported as -54 °C.

Work on Nc1ccc(Cl)c(F)c1 yielded a melting point of 60 °C.

In the case of Oc1cc(O)cc(Cl)c1, the melting point is reported as 118 °C.

Work on O=S(=O)(NC(=S)Nc1ccccc1)c1ccccc1 yielded a melting point of 144 to 145 °C.

With Nc1c2c(nc3ccccc13)CCCC2O (configuration not stated) the melting point was 245 °C.

CC(=O)c1cc2cc(Cl)cc(Cl)c2oc1=O showed a melting point of 172 to 174 °C.

Work on c1ccc2cc3c4ccccc4c4ccccc4c3cc2c1 yielded a melting point of 206 °C.

Work on CCCCCc1ccc(-c2nnc(S)[nH]2)cc1 yielded a melting point of 190 to 193 °C.

For Cn1cc(C=O)c(N)n1, the melting point was 133 to 134 °C.

O=c1[nH]c2c(c(=O)n1C1CCCCC1)CCC2 showed a melting point of 316 °C.

Compound N#CCC(=O)c1cccc(C(F)(F)F)c1 has a melting point of 61 °C.

O=C1C2CCC1C1CCC2O1 showed a melting point of 81 °C.

With C/C(=N\c1cccc2cccc(N)c12)c1c(O)c2ccccc2n(-c2ccccc2)c1=O the melting point was > 300 °C.

Work on CC1=CCCC(C)(C)C1/C=C/C(C)=C/C=C/C(C)=C/C=C/C=C(C)/C=C/C=C(C)/C=C/C1=C(C)CCCC1(C)C (configuration not stated) yielded a melting point of 188 °C.

Compound NC(Cn1ccc(=O)c(O)c1)C(=O)O (configuration not stated) has a melting point of 228 °C.

Compound O=S(=O)(Cl)c1ccc(Br)c(Br)c1 has a melting point of 34 °C.

With CC(C)(C)c1nn(-c2ccccc2)c(N)c1Cn1nnc2ccccc21 the melting point was 124 °C.

Work on O=[N+]([O-])c1cc(CO)ccc1O yielded a melting point of 94 to 98 °C.

With CSC(S)=NCc1ccc(CN)cc1 the melting point was 152 to 153 °C.

Work on CC(C)(C)OC(=O)N1CCN(Cc2cccc(N)c2)CC1 yielded a melting point of 107 to 108 °C.

Compound CC(=O)c1ccc(NC(N)=S)cc1 has a melting point of 215 °C.

For CC(=O)c1c(-c2ccccc2)cc2ccccc2c1O, the melting point was 55 °C.

Work on S=c1[nH]ccn1-c1ccc(Br)cc1 yielded a melting point of 244 to 246 °C.

Compound O=C(Nc1ccccc1NC(=O)c1ccccc1)c1ccccc1 has a melting point of 301 to 302 °C.

CBr gave a melting point of -93.7 °C.

CC(C)(C)N(NC(=O)c1ccccc1)C(=O)c1cccc(C#N)c1 gave a melting point of 174 °C.

Cn1ccc2c(C(=O)O)cccc21 gave a melting point of 243 to 245 °C.

Work on c1ccc(Sc2ccccc2)cc1 yielded a melting point of -40 °C.

For CC(=O)OC1CC2C(C)C(=O)C3(C(OC(C)=O)CC4C5(C)CCCC4(C(OC(C)=O)OC5)C13)C2OC(C)=O (configuration not stated), the melting point was 104 °C.

For CCOC(=O)C1CCN(c2nc(Cl)nc(Cl)n2)CC1, the melting point was 150 °C.

Compound O=C(O)CP(=O)(O)O has a melting point of 144 °C.

In the case of CC12CCC(C(=CNC(N)=O)C1=O)C2(C)C (configuration not stated), the melting point is reported as 197 °C.

ClC1(c2ccccc2)Cc2ccccc21 (configuration not stated) showed a melting point of 60 °C.

Fc1c(F)c(-c2c(F)c(F)c(Br)c(F)c2F)c(F)c(F)c1Br gave a melting point of 113 to 115 °C.

Compound C=CCC(=O)N1CCN(C(=O)OCC2c3ccccc3-c3ccccc32)CC1 has a melting point of 105 to 107 °C.

For O=C1NC(=O)C(=NNc2ccccc2[N+](=O)[O-])C(=O)N1, the melting point was 290 °C.

COC(=O)c1ccccc1S(=O)(=O)NC(=O)Nc1nc(OC(F)F)cc(OC(F)F)n1 gave a melting point of 196 °C.

Work on CC(=O)OC(OC(C)=O)c1cccc([N+](=O)[O-])c1 yielded a melting point of 72 °C.

Compound C[Si](C)(C)C#N has a melting point of 11 °C.

Work on COC(=O)c1cc(C)n(C)n1 yielded a melting point of 93 °C.

Work on CC(C)CCCCCCCCCCCO yielded a melting point of 10.5 °C.

In the case of CC(C)C1=C(O)C(=O)C2=C(C1=O)C(O)C(O)C1C(C)(C)CCCC21C (configuration not stated), the melting point is reported as 203 to 205 °C.

Compound CC[Si](Cl)(CC)CC has a melting point of -75 °C.

In the case of CC(C)SSC(C)C, the melting point is reported as -69 °C.

For COc1ccc(OC)c(C#N)c1, the melting point was 82 °C.

With CCOC(=O)c1cc2c(=O)oc3ccccc3c2nc1NC the melting point was 232 to 233 °C.

Work on Oc1ccc(C=Nc2ccccc2N=Cc2ccc(O)cc2O)c(O)c1 yielded a melting point of 163 to 165 °C.

Work on O=C(Oc1c(F)c(F)c(F)c(F)c1F)c1cccc(-c2nccs2)c1 yielded a melting point of 68.5 to 69.5 °C.

O=C(Nc1ccc([N+](=O)[O-])cc1)C(F)(F)C(F)(F)C(F)(F)C(F)(F)C(F)(F)C(F)(F)C(F)(F)C(F)(F)F showed a melting point of 119 °C.

CCNC(N)=S gave a melting point of 112 °C.

With COc1ccc(-c2cc3ccccc3cn2)cc1 the melting point was 98.5 to 100 °C.
